In US20230058171A1, “NEW ORAL PHARMACEUTICAL COMPOSITION FOR CANCER THERAPY” (BOEHRINGER INGELHEIM INTERNATIONAL GMBH, priority 2021, published 2023):
Read-outs that look alike come from different tables or passages of the source.

Test: Preliminary pharmacokinetics in trial 1403-0001 (Arm A D1 q3w, Arm B D1 D8 q4w)
Format: in vivo, human
Settings: for % AUCtz-∞ / AUC0-∞, norm / CL/F / Cmax, norm / AUC(0-inf) / Cmax / Vd/F / half-life: gMean; for Cmax, norm (gMean) / % AUCtz-∞ (gMean) / AUC0-∞, norm, gMean (gCV [%]) / CL/F (gMean): Arm A D1 q3w; for AUC(0-inf) / Cmax / Vd/F / half-life / Tmax: human, plasma, oral; for AUC(0-inf): read-out: AUC0-∞; for Cmax: read-out: Cmax; for Vd/F: read-out: Vz/F; for half-life: read-out: t1/2 (converted); for Tmax: median, read-out: tmax
Excerpt: Preliminary PK data were available from the first 45 treated patients in study 1403-0001. The exploratory PK analysis is based on planned blood sampling time-points and the results are subject to change because not all samples from these patients have been analyzed yet. Therefore, AUCs may be incomplete. In addition, information on the absorption, distribution, and elimination of the MDM2 antagonist of formula I are descriptive given the limited exploratory PK results available up to this point in time.
Consequently the preliminary PK results support the dose selection of 45 mg (and alternatively even of 30 mg) combined with the once in three weeks (D1 q3w) dose regimen. The tmax of the MDM2 antagonist of formula I is generally between 4 and 6 hours after tablet intake.

[1] = 5 mg, Day 1, D1 D8 q4w (Arm B), N=3
[2] = 5 mg, Day 8, D1 D8 q4w (Arm B), N=3
[3] = 10 mg, Day 1, D1 D8 q4w (Arm B), N=3
[4] = 10 mg, Day 8, D1 D8 q4w (Arm B), N=3
[5] = 15 mg, Day 1, D1 D8 q4w (Arm B), N=3
[6] = 15 mg, Day 8, D1 D8 q4w (Arm B), N=2
[7] = 20 mg, Day 1, D1 D8 q4w (Arm B), N=3
[8] = 20 mg, Day 8, D1 D8 q4w (Arm B), N=3
[9] = 30 mg, Day 1, D1 D8 q4w (Arm B), N=4
[10] = 30 mg, Day 8, D1 D8 q4w (Arm B), N=3
[11] = 45 mg, Day 1, D1 D8 q4w (Arm B), N=2
[12] = 60 mg, Day 1, D1 D8 q4w (Arm B), N=2

Question: With `Cc1c(C(=O)O)ccc2c3n(nc12)[C@@H]1[C@H](C3)N(CC2CC2)[C@@]2(C(=O)Nc3cc(Cl)ccc32)[C@H]1c1cccc(Cl)c1F` [MDM2-antagonist of formula I, (2′S,3′S,3a'S,10a'S)-6-chloro-3′-(3-chloro-2-fluorophenyl)-1′-(cyclopropylmethyl)-6′-methyl-2-oxo-1,2,3′,3a′,10′,10a′-hexahydro-1′H-spiro[indole-3,2′-pyrrolo[2′,3′:4,5]pyrrolo[1,2-b]indazole]-7′-carboxylic acid] as the compound, how does the “% AUCtz-∞” value [1] read?
Answer: Its value is 10.2%.

Question: And the “AUC0-∞, norm” value [1]?
Answer: Its value is 3530 nmol·h/L/mg.

Question: And the CL/F [1]?
Answer: The CL/F was 7.99 mL/min.

Question: What about the “Cmax, norm” value [1] of the same compound?
Answer: Its value is 51.9 nmol/L/mg.

Question: And the “% AUCtz-∞” value [2]?
Answer: The value was 30.2%.

Question: And the “AUC0-∞, norm” value [2]?
Answer: The value was 3860 nmol·h/L/mg.

Question: And the CL/F [2]?
Answer: Its CL/F is 7.31 mL/min.

Question: And the “Cmax, norm” value [2]?
Answer: Its value is 67.2 nmol/L/mg.

Question: What about the “% AUCtz-∞” value [3] of the same compound?
Answer: Its value is 10.8%.

Question: And the “AUC0-∞, norm” value [3]?
Answer: Its value is 5230 nmol·h/L/mg.

Question: And the CL/F [3]?
Answer: The CL/F was 5.39 mL/min.

Question: What about the “Cmax, norm” value [3] of the same compound?
Answer: Its value is 63.8 nmol/L/mg.

Question: And the “% AUCtz-∞” value [4]?
Answer: The value was 31.6%.

Question: And the “AUC0-∞, norm” value [4]?
Answer: The value was 4840 nmol·h/L/mg.

Question: And the CL/F [4]?
Answer: Its CL/F is 5.82 mL/min.

Question: And the “Cmax, norm” value [4]?
Answer: Its value is 71.4 nmol/L/mg.

Question: And the “% AUCtz-∞” value [5]?
Answer: Its value is 2.89%.

Question: What about the “AUC0-∞, norm” value [5] of the same compound?
Answer: Its value is 2520 nmol·h/L/mg.

Question: What about the CL/F [5] of the same compound?
Answer: The CL/F was 11.2 mL/min.

Question: And the “Cmax, norm” value [5]?
Answer: Its value is 55.4 nmol/L/mg.

Question: And the “% AUCtz-∞” value [6]?
Answer: Its value is 14.8%.

Question: What about the “AUC0-∞, norm” value [6] of the same compound?
Answer: Its value is 1720 nmol·h/L/mg.

Question: And the CL/F [6]?
Answer: The CL/F was 16.4 mL/min.

Question: What about the “Cmax, norm” value (15 mg, Day 8, D1 D8 q4w (Arm B), N=3) of the same compound?
Answer: Its value is 51.7 nmol/L/mg.

Question: And the “% AUCtz-∞” value [7]?
Answer: The value was 8.63%.

Question: And the “AUC0-∞, norm” value [7]?
Answer: The value was 4440 nmol·h/L/mg.

Question: And the CL/F [7]?
Answer: The CL/F was 6.34 mL/min.

Question: And the “Cmax, norm” value [7]?
Answer: The value was 68.4 nmol/L/mg.

Question: What about the “% AUCtz-∞” value [8] of the same compound?
Answer: The value was 25.9%.

Question: And the “AUC0-∞, norm” value [8]?
Answer: Its value is 3050 nmol·h/L/mg.

Question: What about the CL/F [8] of the same compound?
Answer: Its CL/F is 9.22 mL/min.

Question: And the “Cmax, norm” value [8]?
Answer: Its value is 60.9 nmol/L/mg.

Question: And the “% AUCtz-∞” value [9]?
Answer: Its value is 6.72%.

Question: What about the “AUC0-∞, norm” value [9] of the same compound?
Answer: Its value is 2660 nmol·h/L/mg.

Question: And the CL/F [9]?
Answer: The CL/F was 10.6 mL/min.

Question: What about the “Cmax, norm” value [9] of the same compound?
Answer: The value was 48.0 nmol/L/mg.

Question: And the “% AUCtz-∞” value [10]?
Answer: The value was 18.9%.

Question: And the “AUC0-∞, norm” value [10]?
Answer: Its value is 2160 nmol·h/L/mg.

Question: And the CL/F [10]?
Answer: The CL/F was 13.0 mL/min.

Question: And the “Cmax, norm” value [10]?
Answer: The value was 44.3 nmol/L/mg.

Question: And the “% AUCtz-∞” value [11]?
Answer: The value was 4.72%.

Question: What about the “AUC0-∞, norm” value [11] of the same compound?
Answer: The value was 2150 nmol·h/L/mg.

Question: And the CL/F [11]?
Answer: Its CL/F is 13.1 mL/min.

Question: What about the “Cmax, norm” value [11] of the same compound?
Answer: The value was 51.7 nmol/L/mg.

Question: What about the “% AUCtz-∞” value [12] of the same compound?
Answer: The value was 7.08%.

Question: And the “AUC0-∞, norm” value [12]?
Answer: Its value is 1460 nmol·h/L/mg.

Question: And the CL/F [12]?
Answer: The CL/F was 19.3 mL/min.

Question: And the “Cmax, norm” value [12]?
Answer: Its value is 32.7 nmol/L/mg.

Question: What about the “Cmax, norm” value (60 mg, Day 8, D1 D8 q4w (Arm B), N=2) of the same compound?
Answer: The value was 31.5 nmol/L/mg.

Question: What about the “Cmax, norm (gMean)” value (20 mg, N=2) of the same compound?
Answer: Its value is 58.2 nmol/L/mg.

Question: And the “% AUCtz-∞ (gMean)” value (30 mg, N=3)?
Answer: The value was 24.6%.

Question: And the “AUC0-∞, norm, gMean (gCV [%])” value (30 mg, N=3)?
Answer: Its value is 3760 (46.8) nmol*h/L/mg.

Question: And the “CL/F (gMean)” value (30 mg, N=3)?
Answer: The value was 7.50 mL/min.

Question: And the “Cmax, norm (gMean)” value (30 mg, N=3)?
Answer: The value was 96.4 nmol/L/mg.

Question: And the “% AUCtz-∞ (gMean)” value (45 mg, N=6)?
Answer: The value was 29.2%.

Question: And the “AUC0-∞, norm, gMean (gCV [%])” value (45 mg, N=6)?
Answer: The value was 3040 (53.6) nmol*h/L/mg.

Question: And the “CL/F (gMean)” value (45 mg, N=6)?
Answer: Its value is 9.28 mL/min.

Question: And the “Cmax, norm (gMean)” value (45 mg, N=6)?
Answer: The value was 60.2 nmol/L/mg.

Question: And the “% AUCtz-∞ (gMean)” value (50 mg, N=4)?
Answer: The value was 19.7%.

Question: And the “AUC0-∞, norm, gMean (gCV [%])” value (50 mg, N=4)?
Answer: The value was 6280 (37.3) nmol*h/L/mg.

Question: What about the “CL/F (gMean)” value (50 mg, N=4) of the same compound?
Answer: Its value is 4.49 mL/min.

Question: What about the “Cmax, norm (gMean)” value (50 mg, N=4) of the same compound?
Answer: Its value is 74.8 nmol/L/mg.

Question: And the “% AUCtz-∞ (gMean)” value (60 mg, N=6)?
Answer: Its value is 3.71%.

Question: What about the “AUC0-∞, norm, gMean (gCV [%])” value (60 mg, N=6) of the same compound?
Answer: The value was 2710 (33.4) nmol*h/L/mg.

Question: What about the “CL/F (gMean)” value (60 mg, N=6) of the same compound?
Answer: Its value is 10.4 mL/min.

Question: And the “Cmax, norm (gMean)” value (60 mg, N=7)?
Answer: Its value is 54.5 nmol/L/mg.

Question: What about the “% AUCtz-∞ (gMean)” value (80 mg, N=2) of the same compound?
Answer: Its value is 2.54%.

Question: And the “AUC0-∞, norm, gMean (gCV [%])” value (80 mg, N=2)?
Answer: Its value is 2570 (29.2) nmol*h/L/mg.

Question: What about the “CL/F (gMean)” value (80 mg, N=2) of the same compound?
Answer: The value was 11.0 mL/min.

Question: What about the “Cmax, norm (gMean)” value (80 mg, N=2) of the same compound?
Answer: The value was 49.2 nmol/L/mg.

Question: What about the AUC(0-inf) [1] of the same compound?
Answer: Its AUC(0-inf) is 17.6 µM·h.

Question: What about the Cmax [1] of the same compound?
Answer: Its Cmax is 260 nM.

Question: What about the Vd/F [1] of the same compound?
Answer: Its Vd/F is 38.2 L.

Question: And the half-life [1]?
Answer: Its half-life is 55.3 h.

Question: What about the Tmax [1] of the same compound?
Answer: Its Tmax is 4 h.

Question: What about the AUC(0-inf) [2] of the same compound?
Answer: The AUC(0-inf) was 19.3 µM·h.

Question: And the Cmax [2]?
Answer: The Cmax was 336 nM.

Question: What about the Vd/F [2] of the same compound?
Answer: The Vd/F was 29.2 L.

Question: What about the half-life [2] of the same compound?
Answer: Its half-life is 46.2 h.

Question: And the Tmax [2]?
Answer: The Tmax was 4 h.

Question: What about the AUC(0-inf) [3] of the same compound?
Answer: Its AUC(0-inf) is 52.3 µM·h.

Question: What about the Cmax [3] of the same compound?
Answer: Its Cmax is 638 nM.
